Data on one compound can be found in patent US20060009426A1, “Pharmaceutical compositions comprising calcitriol and a clobetasol propionate” (GALDERMA RESEARCH & DEVELOPMENT, S.N.C., priority 2002, published 2006).

SMILES strings stand for the structures.

For assay [1], the system named is auricular ganglionic cells. The assay is described as follows: Count of the auricular ganglionic cells in oxazolone-sensitized mice. Format: in vivo, Balb/c mice. To be noted: dose series, day 12, cells per animal. As for the experimental part:
(§1) 8-week-old Balb/c mice are pretreated on the abdominal skin from day 1 to day 6 using product A or B, or A and B diluted in ethanol. On day 6, the mice are actively sensitized by the topical application of 50 mg of oxazolone (oxa) in ethanol onto the abdominal skin. On day 11, an application of 20 mg of oxa in ethanol is performed on the right ear.
On day 12, one day after the repeated application of the oxa, the animals were sacrificed by cervical dislocation. The ganglionic cells are collected and combined by experimental group. A cell suspension is prepared and the cells are then counted. The number of cells is expressed per animal.

In another assay the test system is mouse ear oedema. Nature of the assay: Ear oedema in the delayed hypersensitivity model of mice sensitized with a hapten (oxazolone). Format: in vivo, Balb/c mice. As for the experimental part:
This test represents a reliable model for predicting the immunomodulatory properties of a product in a pathology of Th1 type such as psoriasis.
as §1
Student's t test was used for the statistical analysis of the results.
The thickness of the ear is measured, using a micrometer, on day 11 (just before the application of oxazolone to the presensitized mice) and after 24 hours, on day 12. The ear oedema is expressed as the difference between the measurement of the thickness of the ear between day 12 and day 11. The values of the thickness of the ear are analyzed statistically using Student's t test.

As for `CCC(=O)O[C@]1(C(=O)CCl)[C@@H](C)C[C@H]2[C@@H]3CCC4=CC(=O)C=C[C@]4(C)[C@@]3(F)[C@@H](O)C[C@@]21C` [product B, clobetasol propionate], in assay [1], the “effect on the count of auricular ganglionic cells (FIG. 3)” value was “dose-response effect”. In addition, in the assay with mouse ear oedema (clobetasol propionate alone at 0.01%, topical), the “efficacy on inflammation (ear oedema, FIGS. 1 and 2)” value was “moderate efficacy”. Besides, the “effect of topical application on the intensity of mouse ear oedema (FIG. 1)” value in the assay on mouse ear oedema (dose series, topical pretreatment day 1 to day 6, oedema = ear thickness day 12 minus day 11) is recorded as “dose-response effect”.
